Test results reported in patent US8394971B2, “Indole derivatives as selective androgen receptor modulators (SARMS)” (Janssen Pharmaceutica N.V., priority 2004, dated 2013).
pIC50: −log10 of the molar value. Where “and” joins values, the source holds several entries; their conditions need not be identical. Equal entries are not always repeated.

Assays:
[1] = target: T1, androgen receptor (adenovirus AdEasy+rAR in COS-7 cells) (Rattus norvegicus, UniProt P15207); test: COS-7 Whole-Cell Androgen Receptor Binding Assay, Adenovirus Transduction; conditions: COS binding; for inhibition at 3 µM / % Inhibition: 3000 nM unless otherwise noted
T1 construct: expressed in transfected cells
T1 sequence (P15207 1-902): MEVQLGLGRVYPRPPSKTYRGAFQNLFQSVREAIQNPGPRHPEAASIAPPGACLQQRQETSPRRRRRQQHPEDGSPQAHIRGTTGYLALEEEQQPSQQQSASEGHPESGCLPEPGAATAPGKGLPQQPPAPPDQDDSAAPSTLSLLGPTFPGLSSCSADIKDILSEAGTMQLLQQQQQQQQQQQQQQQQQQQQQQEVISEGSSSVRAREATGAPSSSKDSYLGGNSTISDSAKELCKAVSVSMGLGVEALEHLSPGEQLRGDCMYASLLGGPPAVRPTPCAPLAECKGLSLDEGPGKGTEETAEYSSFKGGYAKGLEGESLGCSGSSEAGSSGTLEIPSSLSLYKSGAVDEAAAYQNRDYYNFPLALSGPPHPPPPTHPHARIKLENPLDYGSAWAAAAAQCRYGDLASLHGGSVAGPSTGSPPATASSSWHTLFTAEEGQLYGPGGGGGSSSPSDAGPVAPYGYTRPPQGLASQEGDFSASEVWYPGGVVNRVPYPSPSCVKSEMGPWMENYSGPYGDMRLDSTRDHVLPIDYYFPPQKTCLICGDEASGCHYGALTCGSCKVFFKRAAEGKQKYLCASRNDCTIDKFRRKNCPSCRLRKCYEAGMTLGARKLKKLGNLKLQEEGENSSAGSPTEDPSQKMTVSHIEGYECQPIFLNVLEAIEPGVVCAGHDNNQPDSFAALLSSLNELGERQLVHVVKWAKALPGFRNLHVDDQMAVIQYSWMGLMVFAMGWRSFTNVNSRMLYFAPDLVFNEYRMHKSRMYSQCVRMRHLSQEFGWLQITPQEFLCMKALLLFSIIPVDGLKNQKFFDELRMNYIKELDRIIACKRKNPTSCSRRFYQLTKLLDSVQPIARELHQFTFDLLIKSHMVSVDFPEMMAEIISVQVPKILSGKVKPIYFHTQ
Description: COS-7 cells were plated in 96-well plates at 20,000 cells per well, in a solution of DMEM/F12 (GIBCO) containing 10% (v/v) charcoal-treated fetal bovine serum (Hyclone) and lacking phenol red. The cells were then incubated overnight at 37° C. in 5% (v/v) humidified CO2.
Test compound solutions were prepared by diluting the test compound in 100% (v/v) DMSO, if necessary.
Next, 1 mL of DMEM/F12 lacking phenol red was pipetted into each of the wells of a 2-mL 96-well assay block. […] The wells were carefully mixed by pipette.
In a 15 mL or 50 mL sterile centrifuge tube, a dilution in DMEM/F12 of the adenovirus AdEasy+rAR at a moi of 1:50 per well was prepared.
The medium was removed from the 96-well plates by inversion and the plates dried very briefly, inverted, on a sterile towel. As soon as possible after medium removal, 40 μL of the diluted test compound was added to each well, in duplicate. […] The plates were then incubated for 48 hours at 37° C. in 5% (v/v) humidified CO2.
The medium was removed from the above incubated plates by inversion and dried. Each well was then washed with 0.35 mL of 1×PBS. The PBS was then removed from the plates by inversion and the plates dried.
To each well was then added 50 μL of 0.5% (v/v) Triton X-100 (Sigma) in 1×PBS and the plates placed on a rotary shaker for 5 min. The contents of each well were then transferred to an OptiPlate-96 (Packard) scintillation plate. To each well was then added 0.2 mL of Microscint-20 (Packard) and the wells counted on a TopCount (Packard).
[…] Counts per well were measured and percents of inhibition determined. […] Counts per well were measured and IC50s determined by linear regression.

[2] = target: T2, androgen receptor (adenovirus AdEasy+rAR in L929 cells) (Rattus norvegicus, UniProt P15207); test: L929 Androgen Receptor Functional Assay, Adenovirus Transduction; format: cell-based; conditions: for % Activity: L929 agonist testing; for inhibition at 3 µM: L929, L929 antagonist testing with R1881
T2 construct: expressed in transfected cells
T2 sequence (P15207 1-902): T1 sequence (P15207 1-902)
How it was run: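 Luminescent reporter readout after 48 h at 37 °C: rat AR delivered by adenovirus (AdEasy+rAR, moi 1:500) into L929 cells grown without phenol red in charcoal-treated serum. Antagonist wells also received R1881 (2.5× dilution at 2.5 nM).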

[3] = tested on: testosterone-enhanced ventral prostate and seminal vesicle weights in castrated male Sprague Dawley rats; test: Ventral Prostate and Seminal Vesicle Weight In Vivo Assay; set-up: species or system rat; conditions: immature castrated rats; once daily for five days, usually orally at 40 mg/kg, with testosterone propionate 2 mg/kg s.c.
How it was run: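 Immature (~50 g) castrated Sprague Dawley rats dosed once daily for five days with compound (usually oral, 40 mg/kg, cyclodextrin or methylcellulose vehicle) plus testosterone propionate 2 mg/kg s.c. Wet ventral prostate and seminal vesicle weights taken on day six; activity judged by prostate weight or body-weight-adjusted % inhibition.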

Compound | inhibition at 3 µM [1] [%] | % Activity ([2]; 3000 nM) [%] | active / inactive (inhibition of testosterone-enhanced prostate weight) [3] | % Inhibition [1] | % Activity ([2]; 3000 nM, 3 µM) | inhibition at 3 µM ([2]; 3000 nM) [%] | pIC50 ([1]; read-out: IC50) | % Activity ([2]; @ 8000 nM)
CC(O)(CSCC(F)(F)F)c1cc2cc(Cl)c(C(F)(F)F)cc2[nH]1 (stereo not shown) [compound 190] | 100 | 1 | active |  |  |  |  | 
CCC(O)(CS(=O)(=O)CC)c1cc2cc([N+](=O)[O-])c(C(F)(F)F)cc2[nH]1 (stereo not shown) [compound 176] | 75 | 3 | active |  |  |  |  | 
CC[S+]([O-])C[C@](C)(O)c1cc2cc([N+](=O)[O-])c(C(F)(F)F)cc2[nH]1 (stereo in doubt) [Compound #155, 1-Ethanesulfinyl-2-(5-nitro-6-trifluoromethyl-1H-indol-2-yl)-propan-2-ol] | 35 | 2 | inactive |  |  |  |  | 
CCSCC(C)(O)c1cc2cc([N+](=O)[O-])c(C(F)(F)F)cc2n1C (racemic) [compound 165] |  |  | active | 69% | 1% |  |  | 
CC(O)(CSCc1ccccc1)c1cc2cc([N+](=O)[O-])c(C(F)(F)F)cc2[nH]1 (stereo not shown) [compound 160] | 84 | 1 | inactive |  |  |  |  | 
CCSCC(O)c1cc2cc([N+](=O)[O-])c(C(F)(F)F)cc2[nH]1 (stereo not shown) [compound 158] | 62 |  | inactive | 56% | 3% and 2% |  |  | 
CCCCSCC(C)(O)c1cc2cc([N+](=O)[O-])c(C(F)(F)F)cc2[nH]1 (stereo not shown) [compound 200] | 97 | 1 | inactive |  |  |  |  | 
CCSCC(C)(O)c1cc2cc(F)c(C(F)(F)F)cc2[nH]1 (stereo not shown) [compound 159] | 90 | 2 | active |  |  |  |  | 
CN(C)c1ccccc1SCC(C)(O)c1cc2cc(Cl)c(C(F)(F)F)cc2[nH]1 (stereo not shown) [compound 127] |  | −5 | inactive | 41% and 74% |  |  |  | 
CCSCC(C)(O)c1cc2cc([N+](=O)[O-])c(C(F)(F)F)cc2n1C (single isomer, unassigned) [compound 231] | 73 |  | active | 78% | 0% and −1% |  |  | 
CCSCC(C)(O)c1[nH]c2cc(C(F)(F)F)c(C#N)cc2c1C (single isomer, unassigned) [Compound #233, 2-(2-Ethylsulfanyl-1-hydroxy-1-methyl-ethyl)-3-methyl-6-trifluoromethyl-1H-indole-5-carbonitrile] |  |  | active | 95% and 81% | 0% |  |  | 
CCCS(=O)(=O)CC(C)(O)c1cc2cc([N+](=O)[O-])c(C(F)(F)F)cc2[nH]1 (stereo not shown) [compound 177] | 90 | 2 | active |  |  |  |  | 
CSCC(C)(O)c1cc2cc(Cl)c(C(F)(F)F)cc2[nH]1 (stereo not shown) [compound 135] | 98 | 0 | inactive |  |  |  |  | 
CCS(=O)(=O)CC(C)(O)c1[nH]c2cc(C(F)(F)F)c(C#N)cc2c1C (single isomer, unassigned) [Compound #251, 2-(2-Ethanesulfonyl-1-hydroxy-1-methyl-ethyl)-3-methyl-6-trifluoromethyl-1H-indole-5-carbonitrile] |  | −1 | active | 85% |  | 90 |  | 
C[S+]([O-])CCC(C)(O)c1cc2cc([N+](=O)[O-])c(C(F)(F)F)cc2[nH]1 (mixture of isomers) [compound 50] |  | 2 | inactive | 7% |  |  |  | 
CCSCC(C)(O)c1cc2cc([N+](=O)[O-])c(C(F)(F)F)cc2[nH]1 (racemic) [compound 142] |  |  | active | 90% | 0% | 78 |  | 
CC(O)(CS(C)(=O)=O)c1cc2cc(Cl)c(C(F)(F)F)cc2[nH]1 (stereo not shown) [compound 138] | 78 | 0 | inactive |  |  |  |  | 
CC(O)(CSC1CCCC1)c1cc2cc([N+](=O)[O-])c(C(F)(F)F)cc2[nH]1 (stereo not shown) [compound 173] | 17 | 2 | inactive |  |  |  |  | 
CC[S+]([O-])CC(C)(O)c1[nH]c2cc(C(F)(F)F)c(C#N)cc2c1C (stereo not shown) [compound 252] | 68 | 1 | active |  |  | 65 | < 5.52 | 
CCCSCC(C)(O)c1cc2cc([N+](=O)[O-])c(C(F)(F)F)cc2[nH]1 (stereo not shown) [compound 168] | 60 | 3 | inactive |  |  |  |  | 
CCS(=O)(=O)C[C@](C)(O)c1cc2cc([N+](=O)[O-])c(C(F)(F)F)cc2[nH]1 [Compound #156, 1-Ethanesulfonyl-2-(5-nitro-6-trifluoromethyl-1H-indol-2-yl)-propan-2-ol] | 42 | 2 | inactive | 52% |  |  |  | 
CCSCC(C)(O)c1cc2cc(C#N)c(C(F)(F)F)cc2[nH]1 (stereo not shown) [compound 209] | 61 |  | active |  |  |  |  | −3 @ 8000 nM %
CCSCC(C)(O)c1cc2cc([N+](=O)[O-])c(C(F)(F)F)cc2n1S(C)(=O)=O (stereo not shown) [compound 141] | 42 | 0 | inactive |  |  |  |  | 
CCC(O)(CSCC(F)(F)F)c1cc2cc([N+](=O)[O-])c(C(F)(F)F)cc2[nH]1 (stereo not shown) [compound 185] | 92 | 2 | active |  |  |  |  | 
CCSCC(C)(O)c1cc2cc([N+](=O)[O-])cc(C(F)(F)F)c2[nH]1 (stereo not shown) [compound 212] | 86 | −3 | active |  |  |  |  | 
CCSCC(C)(O)c1cc2cc(C#N)c(C(F)(F)F)cc2n1C (stereo not shown) [compound 236] | 83 | 2 | active |  |  |  |  | 
CC(O)(CSCC(F)(F)F)c1cc2cc(F)c(C(F)(F)F)cc2[nH]1 (stereo not shown) [compound 189] | 100 | 3 | inactive |  |  |  |  | 
